Measurements taken from patent publication US20070253957A1, “Substituted N-Aryl-1H-Pyrazolo[3,4-B]Quinolin-4-Amines and Analogs as Activators of Caspases and Inducers of Apoptosis” (Cytovia, Inc., priority 2004, published 2007).
Where two headings read alike, the source gives them in different places.

Legend:
[1] = tested on: T-47D; test: Caspase cascade activation assay (N-(Ac-DEVD)-N'-ethoxycarbonyl-R110 fluorogenic substrate) in T-47D cells; format: cell-based, Human; conditions: 24 h incubation; for Caspase Activity Ratio: ratio of net RFU (T=3 h) to that of control samples, 0.16 to 10 μM final; for EC50: sigmoidal dose-response calculation, read-out: Caspase Potency EC50
Protocol: Human breast cancer cell lines T-47D was grown according to media component mixtures designated by American Type Culture Collection+10% FCS (mvitrogen Corporation), in a 5% CO2-95% humidity incubator at 37° C. T-47D and ZR-75-1 cells were maintained at a cell density between 30 and 80% confluency and for HL-60 at a cell density of 0.1 to 0.6×10^6 cells/mL. Cells were harvested at 600×g and resuspended at 0.65×10^6 cells/mL into appropriate media+10% FCS. An aliquot of 45 μL of cells was added to a well of a 96-well microtiter plate containing 5 μL of a 10% DMSO in RPMI-1640 media solution containing 1.6 to 100 μM of 1,3-dimethyl-N-(4-methoxyphenyl)-1H-pyrazolo[3,4-b]quinolin-4-amine or other test compound (0.16 to 10 μM final). An aliquot of 45 μL of cells was added to a well of a 96-well microtiter plate containing 5 μL of a 10% DMSO in RPMI-1640 media solution without test compound as the control sample. The samples were mixed by agitation and then incubated at 37° C. for 24 h in a 5% CO2-95% humidity incubator. After incubation, the samples were removed from the incubator and 50 μL of a solution containing 20 μM of N-(Ac-DEVD)-N′-ethoxycarbonyl-R110 fluorogenic substrate (SEQ ID NO:1) (Cytovia, Inc.; U.S. Pat. No. 6,335,429), 20% sucrose (Sigma), 20 mM DTT (Sigma), 200 mM NaCl (Sigma), 40 mM Na PIPES buffer pH 7.2 (Sigma), and 500 μg/mL lysolecithin (Calbiochem) was added. The samples were mixed by agitation and incubated at room temperature. Using a fluorescent plate reader (Model 1420 Wallac Instruments), an initial reading (T=0) was made about 1-2 min after addition of the substrate solution, employing excitation at 485 nm and emission at 530 nm, to determine the background fluorescence of the control sample. After about 3 h of incubation, the samples were read for fluorescence as above (T=3 h).
The Relative Fluorescence Unit values (RFU) were used to calculate the sample readings as follows: RFU(T=3h)−Control RFU(T=0)=Net RFU(T=3h)
The activity of caspase cascade activation was determined by the ratio of the net RFU value for 1,3-dimethyl-N-(4-methoxyphenyl)-1H-pyrazolo[3,4-b]quinolin-4-amine to that of control samples. The EC50 (nM) was determined by a sigmoidal dose-response calculation (Prism 2.0, GraphPad Software Inc.).

[2] = tested on: MX1; test: Inhibition of cell proliferation (GI50), CellTiter 96 AQUEOUS One Solution, MX1 cells; format: cell-based; conditions: 48 h incubation, dose for 50% inhibition of cell proliferation
Protocol: (§1) T-47D and MX1 cells were grown and harvested as in Example 49. An aliquot of 90 μL of cells (2.2×10^4 cells/mL) was added to a well of a 96-well micrQtiter plate containing 10 μl of a 10% DMSO in RPMI-1640 media solution containing […] to 100 μM of 1,3-dimethyl-N-(4-methoxyphenyl)-1H-pyrazolo[3,4-b]quinolin-4-amine (0.1 nM to 10 μM final) or other test compound. An aliquot of 90 μL of cells was added to a well of a 96-well microtiter plate containing 10 μL of a 10% DMSO in RPMI-1640 media solution without compound as the control sample for maximal cell proliferation (AMax). The samples were mixed by agitation and then incubated at 37° C. for 48 h in a 5% CO2-95% humidity incubator. After incubation, the samples were removed from the incubator and 20 μL of CellTiter 96 AQUEOUS One Solution Cell Proliferation™ reagent (Promega) was added. The samples were mixed by agitation and incubated at 37° C. for 2-4 h in a 5% CO2-95% humidity incubator. Using an absorbance plate reader (Model 1420 Wallac Instruments), an initial reading (T=0) was made about 1-2 min after addition of the solution, employing absorbance at 490 nm. This determines the possible background absorbance of the test compounds. No absorbance for 1,3-dimethyl-N-(4-methoxyphenyl)-1H-pyrazolo[3,4-b]quinolin-4-amine was found at 490 nm. After the 2-4 h incubation, the samples were read for absorbance as above (ATest).
(§2) Baseline for GI50 (dose for 50% inhibition of cell proliferation) of initial cell numbers were determined by adding an aliquot of 90 μL of cells or 90 μL of media, respectively, to wells of a 96-well microtiter plate containing 10 μL of a 10% DMSO in RPMI-1640 media solution. The samples were mixed by agitation and then incubated at 37° C. for 0.5 h in a 5% CO2-95% humidity incubator. After incubation, the samples were removed from the incubator and 20 μL of CellTiter 96 AQUEOUS One Solution Cell Proliferation™ reagent (Promega) was added. The samples were mixed by agitation and incubated at 37° C. for 2-4 h in a 5% CO2-95% humidity incubator. Absorbance was read as above, (Astart) defining absorbance for initial cell number used as baseline in GI50 determinations.
(§3) GI50 (dose for 50% inhibition of cell proliferation) is the concentration where [(ATest−Astart)/(AMax−AStart)]=0.5.

[3] = tested on: T-47D; test: Inhibition of cell proliferation (GI50), CellTiter 96 AQUEOUS One Solution, T-47D cells; format: cell-based, Human; conditions: 48 h incubation, dose for 50% inhibition of cell proliferation
Protocol: as §1, §2, §3

SMILES	EC50 ([1]; Homo sapiens, T47D) [nM]	GI50 ([3]; Homo sapiens, T47D) [nM]	EC50 [1] [nM]	GI50 [3] [nM]	Caspase Activity Ratio [1]	GI50 ([2]; Homo sapiens) [nM]	GI50 [2] [nM]
COc1ccc(Nc2c3ccccc3nc3c2c(C)nn3C)cc1 [Compound A, 1,3-Dimethyl-N-(4-methoxyphenyl)-1H-pyrazolo[3,4-b]quinolin-4-amine]	793	809			3.8	800	
CC(=O)c1ccc(Nc2c3c(nc4ccccc24)CCC3)cc1 [Example 11, N-(4-Acetylphenyl)-2,3-dihydro-1H-cyclopenta[b]quinolin-9-amine]	444	300			9.4	300	
CC(=O)c1ccc(Nc2c3cc(C)ccc3nc3c2c(C)nn3C)cc1 [Example 26, N-(4-Acetylphenyl)-1,3,6-trimethyl-1H-pyrazolo[3,4-b]quinolin-4-amine]	> 10000	> 10000			1.1	> 10000	
CC(=O)c1ccc(Nc2c3cccc(C)c3nc3c2c(C)nn3C)cc1 [Example 29, N-(4-Acetylphenyl)-1,3,8-trimethyl-1H-pyrazolo[3,4-b]quinolin-4-amme]			663	399	4.2		600
COC(=O)c1ccc(N(C)c2c3ccccc3nc3c2c(C)nn3C)cc1 [Example 30, 1,3-Dimethyl-N-methyl-N-(4-methoxycarbonylphenyl)-1H-pyrazolo[3,4-b]quinolin-4-amine]	2850	4560			6.6	4000	
COc1ccc(N(C)c2c3ccccc3nc3c2c(C)nn3C)cc1 [Example 31, 1,3-Dimethyl-N-methyl-N-(4-methoxyphenyl)-1H-pyrazolo[3,4-b]quinolin-4-amine]	4100	6100			9.7	> 10000	
CSc1ccc(Nc2c3ccccc3nc3c2c(C)nn3C)cc1 [Example 33, 1,3-Dimethyl-N-(4-methylthiophenyl)-1H-pyrazolo[3,4-b]quinolin-4-amine]	667	500			3.6	500	
CCC(=O)c1ccc(Nc2c3cccc([N+](=O)[O-])c3nc3c2c(C)nn3C)cc1 [Example 37, 1,3-Dimethyl-8-nitro-N-(4-propionylphenyl)-1H-pyrazolo[3,4-b]quinolin-4-amine]	435	546			4.2	900	
CCC(=O)c1ccc(Nc2c3cccc(N)c3nc3c2c(C)nn3C)cc1 [Example 38, 8-Amino-1,3-dimethyl-N-(4-propionylphenyl)-1H-pyrazolo[3,4-b]quinolin-4-amine]	706	803			5.1	2210	

More lines, main results first:

EC50 ([1]; Homo sapiens, T47D) [nM]	GI50 ([3]; Homo sapiens, T47D) [nM]	EC50 [1] [nM]	GI50 [3] [nM]	SMILES	Caspase Activity Ratio [1]	GI50 ([2]; Homo sapiens) [nM]	GI50 [2] [nM]
333	519			COC(=O)c1ccc(Nc2c3ccccc3nc3c2c(C)nn3C)cc1 [Example 4, 1,3-Dimethyl-N-(4-(methoxycarbonyl)phenyl)-1H-pyrazolo[3,4-b]quinolin-4-amine]	8.6	500	
43	30			CCC(=O)c1ccc(Nc2c3ccccc3nc3c2c(C)nn3C)cc1 [Example 23, 1,3-Dimethyl-N-(4-propionylphenyl)-1H-pyrazolo[3,4-b]quinolin-4-amine]	4.2	30	
173	100			CCC(=O)c1ccc(Nc2c3ccccc3nc3c2c(C)nn3CC)cc1 [Example 42, 1-Ethyl-3-methyl-N-(4-propionylphenyl)-1H-pyrazolo[3,4-b]quinolin-4-amine]	6.7	100	
183	140			CCC(O)c1ccc(Nc2c3ccccc3nc3c2c(C)nn3C)cc1 (stereo not shown) [Example 43, N-(4-(1-Hydroxypropyl)-phenyl)-1,3-dimethyl-1H-pyrazolo[3,4-b]quinolin-4-amine]	3.7	1670	
